≈ marks a conversion by molar mass, not a printed value. Read-outs that look alike come from different tables or passages of the source. Residues, ends and D or L forms follow the SMILES beside them. *: point of attachment. Myristoyl = CCCCCCCCCCCCCC(=O)*
Columns and labels:
[1] = test system: Xanthomonas campestris pv. campestris strain Xcc17; assay: IC50 of bacterial growth (OD600) in rich liquid medium; type: cell-based; conditions: Xcc Xcc17, 24 h, purified peptides
Experimental: (§1) To measure the antimicrobial activity, single colony grown on an optimal rich agar medium for each bacterium was picked and grew in 3 mL of the same rich liquid medium for 4 to 6 h. The bacterial culture was then diluted in the same medium to give a final concentration of OD600=0.08 and then further diluted […] in the same medium. In each well of a 96-well polystyrene plate, 90 μL of the diluted culture was mixed with 10 μL of the peptide to give a peptide concentration of 0, 2, 10, and 20 μg/mL (final cell concentration is 5×10^5 CFU/mL). OD600 was measured after incubation at an optimal temperature for 24 h. IC50 was determined as the lowest peptide concentration inhibiting 50% of bacterial growth.

[2] = test system: Xanthomonas euvesicatoria strain Xvt28; assay: as above; type: cell-based; conditions: Xev Xvt28, 24 h, purified peptides
Experimental: as §1

[3] = test system: Escherichia coli strain DH5a; conditions: 24 h
[4] = test system: Xanthomonas oryzae pv. oryzae strain Xoo28; conditions: Xoo Xoo28; rich medium, 24 h, purified peptides
[5] = test system: Agrobacterium tumefaciens strain Atu C58C1; conditions: rich medium, 24 h, purified peptides
Candida albicans SC5314 = conditions: Candida albicans SC5314; 48 h at 35° C., 0.125 to 64 μg/mL (Table 5)
[6] = Circular dichroism spectroscopy, secondary structure deconvolution
[7] = test system: Acinetobacter baumannii ATCC 17978
[8] = test system: Staphylococcus aureus BCRC 10777
[9] = test system: Staphylococcus epidermidis ATCC 14990
Eco DH5α = assay: MIC and MBC by serial dilution in 96-well plate; type: cell-based, Escherichia coli
Experimental: (§2) The effect of peptide length on the antimicrobial activity was investigated by deciding the minimal inhibitory concentration (MIC) and minimal bactericidal concentration (MBC) for each peptide against the pathogen with the media and growth conditions of phytopathogenic bacteria and E. coli as described in Table 1. Single bacterial colony grown on an optimal rich agar medium was picked, and each grew in 3 mL of the same rich liquid medium for 4 to 6 h.
(§3) For experiments carried out in the rich medium, the bacterial broth culture was then diluted in the same medium to give a final concentration of OD600=0.08, and then further diluted 100 folds in the same medium.
(§4) For experiments carried out in the minimal medium, the bacterial cells were collected from the bacterial liquid culture by centrifugation, re-suspended in an optimal minimal medium to give a final concentration of OD600=0.08, and then further diluted 100 folds in the same minimal medium.
(§5) Fifty microliters of serially diluted peptides (2-fold the final concentration) were added in a 96-well polystyrene plate with 50 μL of the bacterial culture. The final concentrations of peptides were 0, 2, 4, 8, 16 and 32 μg/mL. The plates were incubated at an optimal temperature without shaking.
(§6) MBC was determined as the lowest peptide concentration at which no colonies formed.

[10] = test system: Xanthomonas campestris pv. campestris strain Xcc17; assay: MIC and MBC by serial dilution in 96-well plate; type: cell-based; conditions: Xcc Xcc17; Table 7
Experimental: as §2, §3, §4, §5, §6

[11] = test system: Xanthomonas euvesicatoria strain Xvt28; assay: MIC and MBC by serial dilution in 96-well plate; type: cell-based; conditions: Xev Xvt28; Table 7
Experimental: as §2, §3, §4, §5, §6

Erwinia chrysanthemi = type: cell-based
Experimental: (§7) The effect of peptide length on the antimicrobial activity was investigated by deciding the minimal inhibitory concentration (MIC) and minimal bactericidal concentration (MBC) for each peptide against the pathogen with the media and growth conditions of phytopathogenic bacteria and E. coli as described in Table 1. Single bacterial colony grown on an optimal rich agar medium was picked, and each grew in 3 mL of the same rich liquid medium for 4 to 6 h. For experiments carried out in the rich medium, the bacterial broth culture was then diluted in the same medium to give a final concentration of OD600=0.08, and then further diluted 100 folds in the same medium. For experiments carried out in the minimal medium, the bacterial cells were collected from the bacterial liquid culture by centrifugation, re-suspended in an optimal minimal medium to give a final concentration of OD600=0.08, and then further diluted 100 folds in the same minimal medium. Fifty microliters of serially diluted peptides (2-fold the final concentration) were added in a 96-well polystyrene plate with 50 μL of the bacterial culture. […] The plates were incubated at an optimal temperature without shaking. […] MBC was determined as the lowest peptide concentration at which no colonies formed. The experiments were conducted in an optimal minimal medium for each pathogen. The media and growth conditions were described in Tables 2 and 3. MIC and MBC values were determined following the procedures described above. […] Fifty microliters of serially diluted peptides (2-fold the final concentration) were added in a 96-well polystyrene plate with 50 μL of the fungal spore suspension.

[12] = test system: Pectobacterium carotovorum subsp. carotovorum; type: cell-based
Experimental: as §7

Botrytis cinerea = type: cell-based; conditions: Bc; optimal minimal medium, crude peptides (Table 9)
Experimental: (§8) The experiments were conducted in an optimal minimal medium for each pathogen. The media and growth conditions were described in Tables 2 and 3. MIC and MBC values were determined following the procedures described above. […] Fifty microliters of serially diluted peptides (2-fold the final concentration) were added in a 96-well polystyrene plate with 50 μL of the fungal spore suspension. […] The plates were incubated at an optimal temperature without shaking. […] MFC was determined as the lowest peptide concentration at which no fungal growth was observed.

Cgl FST02 = type: cell-based, Colletotricum gloeosporioides; conditions: Cgl FST02; optimal minimal medium, crude peptides (Table 9)
Experimental: as §8

[13] = test system: bacteria, fungal spores, and fungal mycelia; type: cell-based; conditions: SYTOX Green, crude peptides, room temperature in dark for 2 h
[14] = test system: Xanthomonas oryzae pv. oryzae strain Xoo28; conditions: Xoo Xoo28; Table 7
[15] = test system: Agrobacterium tumefaciens strain Atu C58C1
[16] = test system: Pseudomonas syringae pv. tomato strain DC3000
[17] = test system: Pseudomonas syringae pv. syringae strain B728a; conditions: Pss B728a; Table 7
[18] = test system: Ralstonia solanacearum strain Pss4; conditions: Rs Pss4; optimal minimal medium, crude peptides (Table 9)
[19] = test system: Ralstonia solanacearum strain Pss190; conditions: Rs Pss190; optimal minimal medium, crude peptides (Table 9)
[20] = test system: Klebsiella pneumonia NTUH-K2044
[21] = Eco DH5α, rich medium, purified peptides

## Ac-WKLLKKLLKLLKKLLKLL-NH2 [pepB]
[1]
  IC50: — (“—” indicates no antimicrobial activity being detected at the highest peptide concentration (20 μg/mL) tested in this study.)
[2]
  IC50: 16.7 µg/mL
[3]; [21]
  IC50: — (“—” indicates no antimicrobial activity being detected at the highest peptide concentration (20 μg/mL) tested in this study.)
[4]
  IC50: — (“—” indicates no antimicrobial activity being detected at the highest peptide concentration (20 μg/mL) tested in this study.)
[5]
  IC50: — (“—” indicates no antimicrobial activity being detected at the highest peptide concentration (20 μg/mL) tested in this study.)
Candida albicans SC5314
  MIC: — (“—” indicates no antimicrobial activity being detected at the highest peptide concentration (64 μg/mL) tested.)
[6]; 10% TFE
  α-helix formation: 90%
[6]; dissolved in water, structural deconvolution of CD spectra
  α-helix content: about 25%

## CCCCCCCCCCCCCC(=O)N[C@@H](Cc1c[nH]c2ccccc12)C(=O)N[C@@H](CCCCN)C(=O)N[C@@H](CCCCN)C(=O)N[C@H](C(=O)N[C@@H](CCCCN)C(=O)N[C@@H](CCCCN)C(=O)N[C@H](C(=O)N[C@H](C(=O)N[C@@H](CCCCN)C(=O)N[C@@H](CCCCN)C(=O)N[C@H](C(=O)N[C@@H](CCCCN)C(=O)N[C@@H](CCCCN)C(=O)N[C@H](C(N)=O)[C@@H](C)CC)[C@@H](C)CC)[C@@H](C)CC)[C@@H](C)CC)[C@@H](C)CC [pepI2M] (Myristoyl-WKKIKKIIKKIKKI-NH2)
[7]
  MBC: 32 µg/mL (≈ 16 µM)

## CCCCCCCCCCCCCC(=O)N[C@@H](Cc1c[nH]c2ccccc12)C(=O)N[C@@H](CCCCN)C(=O)N[C@@H](CCCCN)C(=O)N[C@H](C(=O)N[C@@H](CCCCN)C(=O)N[C@@H](CCCCN)C(=O)N[C@@H](CC(C)C)C(=O)N[C@H](C(=O)N[C@@H](CCCCN)C(=O)N[C@@H](CCCCN)C(=O)N[C@@H](CC(C)C)C(N)=O)C(C)C)C(C)C [pepD3(V)M] (Myristoyl-WKKVKKLVKKL-NH2)
[7]
  MBC: 16 µg/mL (≈ 9.95 µM)
[8]
  MBC: 16 µg/mL (≈ 9.95 µM)
  MIC: 16 µg/mL (≈ 9.95 µM)
[9]
  MBC: 16 µg/mL (≈ 9.95 µM)
  MIC: 16 µg/mL (≈ 9.95 µM)

## CCCCCCCCCCCCCC(=O)N[C@@H](Cc1c[nH]c2ccccc12)C(=O)N[C@@H](CCCCN)C(=O)N[C@@H](CCCCN)C(=O)N[C@H](C(=O)N[C@@H](CCCCN)C(=O)N[C@@H](CCCCN)C(=O)N[C@H](C(=O)N[C@H](C(=O)N[C@@H](CCCCN)C(=O)N[C@@H](CCCCN)C(=O)N[C@H](C(=O)N[C@@H](CCCCN)C(=O)N[C@@H](CCCCN)C(=O)N[C@H](C(N)=O)C(C)C)C(C)C)C(C)C)C(C)C)C(C)C [pepV2M] (Myristoyl-WKKVKKVVKKVKKV-NH2)
[7]
  MBC: 16 µg/mL (≈ 8.27 µM)
[8]
  MBC: 16 µg/mL (≈ 8.27 µM)
  MIC: 8 µg/mL (≈ 4.14 µM)
[9]
  MBC: 16 µg/mL (≈ 8.27 µM)
  MIC: 16 µg/mL (≈ 8.27 µM)

## Ac-WKKLKKLLKKLKKL-NH2 [pepD2]
Eco DH5α; Table 7
  MBC: 7.0 µg/mL
  MIC: 4.3 µg/mL
Eco DH5α; Table 13
  MBC: 8.0 µg/mL
  MIC: 8.0 µg/mL
[10]
  MBC: 1.0 µg/mL
  MIC: 1.0 µg/mL
[11]
  MBC: 3.5 µg/mL
  MIC: 3.0 µg/mL
Erwinia chrysanthemi
  MBC: 32.0 µg/mL
  MBC/MFC: 21.3 µg/mL
[12]
  MBC: 18.8 µg/mL
  MBC/MFC: 8.0 µg/mL
[12]; Pcc, Table 13
  MBC: 6.7. μg/mL
Botrytis cinerea
  MBC/MFC: — (“—” indicates no antimicrobial activity being detected at the highest peptide concentration (32 μg/mL) tested in this study.)
  MIC: — (“—” indicates no antimicrobial activity being detected at the highest peptide concentration (32 μg/mL) tested in this study.)
Cgl FST02
  MBC/MFC: — (“—” indicates no antimicrobial activity being detected at the highest peptide concentration (32 μg/mL) tested in this study.)
  MIC: — (“—” indicates no antimicrobial activity being detected at the highest peptide concentration (32 μg/mL) tested in this study.)
[13]
  membranolytic effect on the cell walls of bacteria, fungal spores, and fungal mycelia: significant membranolytic effect
[14]
  MBC: 6.0 µg/mL
  MIC: 5.0 µg/mL
[15]
  MBC: 2.2 µg/mL
  MIC: 1.6 µg/mL
[16]
  MBC: 8.8 µg/mL
  MIC: 4.8 µg/mL
[17]
  MBC: 14.7 µg/mL
  MIC: 6.0 µg/mL
[18]
  MBC/MFC: — (“—” indicates no antimicrobial activity being detected at the highest peptide concentration (32 μg/mL) tested in this study.)
  MIC: — (“—” indicates no antimicrobial activity being detected at the highest peptide concentration (32 μg/mL) tested in this study.)
[19]
  MBC/MFC: — (“—” indicates no antimicrobial activity being detected at the highest peptide concentration (32 μg/mL) tested in this study.)
  MIC: — (“—” indicates no antimicrobial activity being detected at the highest peptide concentration (32 μg/mL) tested in this study.)
[20]
  MBC: 16 µg/mL
  MIC: 16 µg/mL
[8]
  MBC: 16 µg/mL
  MIC: 16 µg/mL
[9]
  MBC: 32 µg/mL
  MIC: 16 µg/mL

## Ac-WKLKLKLKLKLKLKLKLK-NH2 [pepE]
[1]
  IC50: 4.0 µg/mL
[2]
  IC50: 2.0 µg/mL
[3]; DH5a
  IC50: 10.0 µg/mL
[4]
  IC50: 7.3 µg/mL
[5]
  IC50: 20.0 µg/mL
Candida albicans SC5314
  MIC: — (“—” indicates no antimicrobial activity being detected at the highest peptide concentration (64 μg/mL) tested.)

## Ac-WKLLKKLLKKLKKLLKKL-NH2 [pepC]
[1]
  IC50: 10.0 µg/mL
[2]
  IC50: 8.0 µg/mL
[3]; [21]
  IC50: 10.0 µg/mL
[4]
  IC50: 12.5 µg/mL
[5]
  IC50: 12.5 µg/mL
Candida albicans SC5314
  MIC: 32.0 µg/mL
